Assay results published in ChEMBL document CHEMBL3751741, “Discovery of a potent and highly fluorescent sirtuin inhibitor” (Medchemcomm, 2015).
Converted amounts (≈) assume the structure as drawn. The source made the active and inactive calls. The calls are words filed in the database; no cut-off is given here.

Key:
[1] = Antiproliferative activity against human HCT116 cells assessed as cell viability at 50 uM after 72 hrs by MTS assay (reference value: 100 +/- 6.01%); type: functional; settings: HCT-116, 72 h, read-out: Activity
CCRF-CEM = assay: Antiproliferative activity against human CCRF-CEM cells assessed as cell viability at 50 uM after 72 hrs by MTS assay (reference value: 100 +/- 5.54%); type: functional; settings: read-out: Activity
[2] = target: T1, NAD-dependent protein deacetylase sirtuin-2 (Homo sapiens) (UniProt Q8IXJ6); assay: Inhibition of recombinant human C-terminal His-tagged SIRT2 (13 to 319 residues) using human p53 derived peptides as substrate at 50 uM incubated for 45 mins by fluorescence assay
T1 sequence (whole entry): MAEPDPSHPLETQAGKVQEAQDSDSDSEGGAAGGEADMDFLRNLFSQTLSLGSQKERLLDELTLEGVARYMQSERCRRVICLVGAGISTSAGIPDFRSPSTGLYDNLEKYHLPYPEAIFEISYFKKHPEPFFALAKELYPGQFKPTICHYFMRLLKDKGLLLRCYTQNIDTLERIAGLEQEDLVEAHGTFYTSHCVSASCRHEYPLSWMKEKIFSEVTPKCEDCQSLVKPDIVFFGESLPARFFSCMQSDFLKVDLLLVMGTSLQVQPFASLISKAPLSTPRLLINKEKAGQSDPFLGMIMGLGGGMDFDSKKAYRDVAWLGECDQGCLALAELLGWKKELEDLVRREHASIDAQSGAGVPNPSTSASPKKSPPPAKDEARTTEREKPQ

MDA-MB-468 = assay: Antiproliferative activity against human MDA-MB-468 cells assessed as cell viability at 50 uM after 72 hrs by MTS assay (reference value: 100 +/- 8.06%); type: functional; settings: MDA-MB-468, 72 h, read-out: Activity
[3] = target: T1, NAD-dependent protein deacetylase sirtuin-2 (Homo sapiens); assay: Reversible inhibition of recombinant human C-terminal His-tagged SIRT2 (13 to 319 residues) using human p53 derived peptides as substrate at 10 uM incubated for 45 mins by fluorescence assay
[4] = Drug uptake in cytoplasm of human CCD18 cells at 50 uM by fluorescence microscopy; type: ADME, cell-based; settings: ccd18, 50 µM
[5] = Drug uptake in cytoplasm of human HCT116 cells at 50 uM by fluorescence microscopy; type: ADME, cell-based; settings: hct-116, 50 µM
[6] = target: T2, NAD-dependent protein deacetylase sirtuin-2 (Homo sapiens, UniProt Q8IXJ6); assay: Inhibition of recombinant human C-terminal His-tagged SIRT2 (13 to 319 residues) using human p53 derived peptides as substrate incubated for 45 mins by fluorescence assay
T2 sequence (Q8IXJ6 whole entry): T1 sequence (whole entry)

[7] = target: T1, NAD-dependent protein deacetylase sirtuin-2 (Homo sapiens); assay: Competitive inhibition of recombinant human C-terminal His-tagged SIRT2 (13 to 319 residues) using human p53 derived peptides as substrate incubated for 45 mins by fluorescence assay in presence of increasing NAD+ level
[8] = Aqueous solubility of compound in water containing 0.5% DMSO by UV-spectrophotometry analysis; type: physicochemical
[9] = target: T1, NAD-dependent protein deacetylase sirtuin-2 (Homo sapiens); assay: Inhibition of SIRT2 in human HCT116 cells assessed as increase in alpha-tubulin acetylation up to 50 uM incubated for 24 hrs by Western blotting method; type: cell-based; settings: HCT-116
[10] = target: T3, NAD-dependent protein deacetylase sirtuin-1 (Homo sapiens) (UniProt Q96EB6); assay: Inhibition of recombinant human N-terminal GST-tagged SIRT1 (193 to 741 residues) using human p53 derived peptides as substrate at 50 uM incubated for 45 mins by fluorescence assay
T3 sequence (whole entry): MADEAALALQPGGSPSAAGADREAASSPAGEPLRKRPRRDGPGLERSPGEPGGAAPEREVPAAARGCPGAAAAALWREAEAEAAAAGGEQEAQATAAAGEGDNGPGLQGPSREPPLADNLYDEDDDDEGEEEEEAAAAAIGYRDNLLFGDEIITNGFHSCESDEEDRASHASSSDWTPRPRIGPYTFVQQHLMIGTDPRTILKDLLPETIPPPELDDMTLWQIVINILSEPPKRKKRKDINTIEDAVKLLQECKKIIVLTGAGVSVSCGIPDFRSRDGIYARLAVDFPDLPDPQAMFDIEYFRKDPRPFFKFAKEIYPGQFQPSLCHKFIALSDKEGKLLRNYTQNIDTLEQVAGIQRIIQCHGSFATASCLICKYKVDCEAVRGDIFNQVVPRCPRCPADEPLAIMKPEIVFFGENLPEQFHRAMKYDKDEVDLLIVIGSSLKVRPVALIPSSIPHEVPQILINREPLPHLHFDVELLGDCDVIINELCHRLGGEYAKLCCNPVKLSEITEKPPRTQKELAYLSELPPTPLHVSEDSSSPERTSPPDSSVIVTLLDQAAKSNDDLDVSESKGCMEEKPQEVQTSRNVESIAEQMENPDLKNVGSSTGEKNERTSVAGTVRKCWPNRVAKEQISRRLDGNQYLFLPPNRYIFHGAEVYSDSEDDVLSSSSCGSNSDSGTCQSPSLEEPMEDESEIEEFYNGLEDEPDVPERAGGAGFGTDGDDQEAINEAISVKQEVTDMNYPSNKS

[11] = target: T4, NAD-dependent protein deacetylase sirtuin-1 (Homo sapiens, UniProt Q96EB6); assay: Inhibition of recombinant human N-terminal GST-tagged SIRT1 (193 to 741 residues) using human p53 derived peptides as substrate incubated for 45 mins by fluorescence assay
T4 sequence (Q96EB6 whole entry): T3 sequence (whole entry)

CCOC(=O)c1ccc2[nH]c(-c3ccc(C(C)(C)C)cc3)nc2c1
viability at 50 µM [1]: 54.2% | viability at 50 µM (CCRF-CEM): 82.2% | inhibition [2]: 50.2% | viability at 50 µM (MDA-MB-468): 54.6%

CCOC(=O)c1ccc2[nH]c(-c3ccc(N4CCCCC4)cc3)nc2c1
viability at 50 µM [1]: 15.9% | viability at 50 µM (CCRF-CEM): 36.3% | inhibition [3]: Active | Drug uptake [4]: Active | Drug uptake [5]: Active | inhibition [2]: 93.2% | IC50 [6]: 9 µM | inhibition [7]: Active | solubility [8]: 59 µM (≈ 20.6 µg/mL) | inhibition [9]: Active | viability at 50 µM (MDA-MB-468): 34%

CCOC(=O)c1ccc2[nH]c(-c3ccc(N4CCOCC4)cc3)nc2c1
viability at 50 µM [1]: 54.5% | viability at 50 µM (CCRF-CEM): 37.8% | inhibition [10]: 37.8% | inhibition [2]: 60.7% | IC50 [6]: 52.9 µM | IC50 [11]: 57.5 µM | viability at 50 µM (MDA-MB-468): 42.6%

CCOC(=O)c1ccc2[nH]c(-c3ccc(N(C)C)cc3)nc2c1
viability at 50 µM [1]: 29.7% | viability at 50 µM (CCRF-CEM): 49.5% | inhibition [2]: 87.5% | IC50 [6]: 13.6 µM | viability at 50 µM (MDA-MB-468): 31.1%

CCOC(=O)c1ccc2[nH]c(-c3ccccc3)nc2c1
viability at 50 µM [1]: 29.7% | viability at 50 µM (CCRF-CEM): 58.3% | inhibition [10]: 24.7% | inhibition [2]: 36.3% | viability at 50 µM (MDA-MB-468): 49.3%

CCOC(=O)c1ccc2[nH]c(-c3ccc(C)cc3)nc2c1
viability at 50 µM [1]: 48.4% | viability at 50 µM (CCRF-CEM): 61.2% | inhibition [2]: 45.2% | viability at 50 µM (MDA-MB-468): 89.1%

N#C/C(=C\c1ccc(-c2cc(Cl)ccc2Cl)o1)C(=O)Nc1cccc2ncccc12
IC50 [11]: 68 µM

CCOC(=O)c1ccc2[nH]c(-c3ccc(OC)cc3)nc2c1
viability at 50 µM [1]: 75.6% | viability at 50 µM (CCRF-CEM): 87.4% | inhibition [2]: 26% | viability at 50 µM (MDA-MB-468): 82.8%

CCOC(=O)c1ccc2[nH]c(-c3ccc(O)cc3)nc2c1
viability at 50 µM [1]: 77.1% | viability at 50 µM (CCRF-CEM): 85.5% | inhibition [2]: 42.9% | viability at 50 µM (MDA-MB-468): 76.5%
